Reference: PubChem BioAssay (NCI)
Values joined by “and” are separate entries in the source; they are usually repeats but may differ in a detail not shown here. Identical values can stand only once.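 Protocol summary: plate cells (96-well), add compound at 5 concentrations, incubate 48 h, interpolate endpoints linearly. The concentration for 50% growth inhibition is given as GI50. Definition used: TGI = concentration required for complete inhibition of growth.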

Legend:
Experiment in all cases: NCI tumour cell line growth inhibition, 48 h
A549 NSCLC = test system: A549 NSCLC
HCC-2998 colon = test system: HCC-2998 colon
MCF7 breast = test system: MCF7 breast
NCI-H522 lung = test system: NCI-H522 lung
OVCAR-3 ovarian = test system: OVCAR-3 ovarian
PC-3 prostate = test system: PC-3 prostate
RPMI-8226 leukemia = test system: RPMI-8226 leukemia
SK-OV-3 ovarian = test system: SK-OV-3 ovarian
SNB-75 CNS = test system: SNB-75 CNS
UACC-62 melanoma = test system: UACC-62 melanoma

SMILES	GI50 (A549 NSCLC)	TGI (A549 NSCLC) [µM]	GI50 (HCC-2998 colon)	TGI (HCC-2998 colon) [µM]	GI50 (MCF7 breast) [µM]	TGI (MCF7 breast) [µM]	GI50 (NCI-H522 lung) [µM]	TGI (NCI-H522 lung) [µM]	GI50 (OVCAR-3 ovarian) [µM]	TGI (OVCAR-3 ovarian) [µM]	GI50 (PC-3 prostate)	TGI (PC-3 prostate) [µM]	GI50 (RPMI-8226 leukemia)	TGI (RPMI-8226 leukemia) [µM]	GI50 (SK-OV-3 ovarian)	TGI (SK-OV-3 ovarian) [µM]	GI50 (SNB-75 CNS) [µM]	TGI (SNB-75 CNS) [µM]	GI50 (UACC-62 melanoma)	TGI (UACC-62 melanoma) [µM]
CCCN(CCC)c1ccc(C=O)c(C)c1	70.7 µM	> 100	52.4 µM	> 100	40.8	> 100	37.4	> 100	35.4	> 100	32.7 µM	> 100	69.4 µM	> 100	> 100 µM	> 100	22.3	97.7	28.4 µM	> 100
CC1(C)CCC(C)(C)c2cc(NC(=O)c3ccc(C(=O)O)cc3)ccc21	–	> 100	–	> 60	–	> 83.2	–	> 89.3	–	> 57.9	–	> 70.6	–	> 100	–	> 100	–	> 100	–	39.4
CN(C)CCOc1ccccc1NC1=C(Cl)C(=O)C(Nc2ccccc2OCCN(C)C)=C(Cl)C1=O	> 47.3 µM	> 100	5.74 µM	> 21.6	0.51	1.18	0.502	1.14	0.444	0.879	9.84 µM	> 31.8	> 100 µM	> 100	> 47.7 µM	> 83.1	> 39.4	> 82.1	> 34.1 µM	> 49.3
COc1ccc(NC(=O)c2ccc(NC3=C(Cl)C(=O)N(Cc4ccccc4)C3=O)cc2)c(OC)c1	45.4 µM	> 100	10.1 µM	21.7	33.7	> 100	19	68.9	15.1	33.2	25.7 µM	> 100	4.85 µM	22.8	> 100 µM	> 100	47.1	> 100	37.2 µM	> 100
O=[N+]([O-])c1ccc2c(c1)C(c1ccccc1Cl)=Nc1c(n[nH]c1-c1cccnc1)N2	> 25 µM	> 25	> 25 µM	> 25	> 25	> 25	> 25	> 25	> 25	> 25	> 25 µM	> 25	> 25 µM	> 25	> 25 µM	> 25	> 10.1	> 25	> 25 µM	> 25
COc1cc(C2CC(=O)Nc3c2c(C)nn3-c2nc3ccccc3[nH]2)cc(OC)c1O (centres undefined)	3.45 µM	> 40.2	6.48 µM	35.7	3.13	> 100	2.38	5.78	2.95	7.78	3.49 µM	38.8	3.07 µM	12.5	2.7 µM	5.9	1.85	5.13	2.06 µM	4.9
NC(N)=Nc1ccc(/C=C2\C=Cc3ccccc32)cc1	1.87 µM	4.63	1.69 µM	3.15	0.523	2.37	2.39	5.79	3.05	8.93	3.31 µM	14.8	3.18 µM	14.4	6.14 µM	22.9	2.22	8.99	2.84 µM	9.94
N#CC1=C(N)Oc2c(sc3c(Br)cccc23)C1c1ccc(Cl)cc1 (centres undefined)	1.16 µM	3.52	1.57 µM	6.29	0.295	5.07	0.367	2.43	0.272	0.749	0.56 µM	5.55	0.496 µM	9.25	0.464 µM	11.6	0.478	9.41	0.435 µM	8.35
O=[N+]([O-])c1oc2ccc3ccccc3c2c1CCO	–	7.29	–	1.24	–	29.5	–	3.77	–	58.5	–	87.7	–	22.2	–	5.1	–	16.7	–	12.5
Oc1ccccc1/C=N\NC(=S)N/N=C/c1ccccc1O	3.5 µM	> 100	3.62 µM	> 100	2.38	40.3	5.76	36.5	0.451	24.6	5.99 µM	> 100	2.77 µM	34.2	4.28 µM	> 100	2.24	38.2	1.23 µM	7.56
C/C=C(\C)C(=O)O[C@H]1C=CC(=O)O[C@H]1COC(=O)[C@H](C)O	15.5 µM	35.3	14.9 µM	30	3.4	14.1	7.1	23.7	3.44	14	11 µM	28.9	3.2 µM	14.5	17.6 µM	46.4	6.95	20.9	7.71 µM	21
Cc1[nH]nc2ncc(C(=O)N3CCC[C@H]3c3ccc(Cl)cc3)cc12	> 100 µM	> 100	> 100 µM	> 100	41.6	> 100	> 100	> 100	64.2	> 100	45.6 µM	> 100	63 µM	> 100	> 100 µM	> 100	84.4	> 100	44.1 µM	> 100
COC(=O)[C@@H](C)C[C@H](Cc1ccccc1)NC(=O)c1csc([C@@H](C[C@H](C(C)C)N(C)C(=O)[C@@H](NC(=O)[C@H]2CCCN2C)C2CC2)OC(C)=O)n1	0.00664 µM and 0.0025 µM	> 25	0.00431 µM and 0.0025 µM	> 25	–	> 25	0.000223	0.000814	0.000198	0.00695	0.000545 µM and 0.0025 µM	> 25	0.000262 µM and 0.0025 µM	12.2	0.0083 µM and 0.0025 µM	> 25	0.0025	> 25	0.000445 µM and 0.0025 µM	> 25
CN(C)c1ccccc1[CH2][Ga]([Cl])[CH2]c1ccccc1N(C)C	1.44 µM	2.94	1.23 µM	2.88	0.954	2.67	1.41	3.45	1.4	3.65	1.74 µM	3.63	0.651 µM	3.63	1.71 µM	3.8	1.41	2.74	0.717 µM	2.08
CC/C=C\C[C@H](O)C/C=C1/C(=O)C=C[C@@H]1C/C=C\CCCCO	3.35 µM	11.5	1.83 µM	3.38	0.544	10.6	1.74	3.95	3.72	12.9	3.32 µM	9.23	2.52 µM	10.4	5.08 µM	29.2	11	38.4	1.87 µM	5.46
CC(C)Cc1ccc(C(C)C(=O)NCc2ccc(Cn3c(=O)sn(CCCI)c3=O)cc2)cc1 (centres undefined)	1.39 µM	3.12	1.75 µM	3.38	0.397	2.03	0.309	1.04	0.269	0.791	0.732 µM	2.07	0.34 µM	2.2	2.88 µM	8.23	0.558	1.96	1.17 µM	2.44
O=S(=O)(NCCCNc1cc(-c2cn(-c3ccccc3)nc2-c2cccc(O)c2)ccn1)c1ccc(Br)cc1	2.6 µM	12.6	2 µM	3.78	1.76	5.16	2.11	4.85	1.66	3.61	2.11 µM	7.83	1.45 µM	4.68	2.76 µM	9.3	1.22	7.81	1.57 µM	3.59
COc1ccc(OC)c(/C=C/c2ccnc3ccccc23)c1	–	14.7	–	12.9	–	17.4	–	1.79	–	1.76	–	6.76	–	26.3	–	5.1	–	0.977	–	7.59
Cc1c2c(nn1-c1ccc(S(=O)(=O)NC(=S)NC(=O)c3ccccc3)cc1)-c1ccccc1CC2	54.1 µM	> 100	89.2 µM	> 100	35.9	> 100	50.4	> 100	13.7	41.4	42 µM	> 100	36.3 µM	> 100	> 100 µM	> 100	59.5	> 100	29 µM	> 100
